Where two headings read alike, the source gives them in different places.

Consider 22 molecules from US20230257372A1 (CHONG KUN DANG PHARMACEUTICAL CORP., priority 2020, published 2023).

One assay deals with T1, human recombinant HDAC6 (Homo sapiens, UniProt Q9UBN7).
T1 construct: purchased Calbiochem Inc. 382180
T1 sequence (Q9UBN7 1-1215): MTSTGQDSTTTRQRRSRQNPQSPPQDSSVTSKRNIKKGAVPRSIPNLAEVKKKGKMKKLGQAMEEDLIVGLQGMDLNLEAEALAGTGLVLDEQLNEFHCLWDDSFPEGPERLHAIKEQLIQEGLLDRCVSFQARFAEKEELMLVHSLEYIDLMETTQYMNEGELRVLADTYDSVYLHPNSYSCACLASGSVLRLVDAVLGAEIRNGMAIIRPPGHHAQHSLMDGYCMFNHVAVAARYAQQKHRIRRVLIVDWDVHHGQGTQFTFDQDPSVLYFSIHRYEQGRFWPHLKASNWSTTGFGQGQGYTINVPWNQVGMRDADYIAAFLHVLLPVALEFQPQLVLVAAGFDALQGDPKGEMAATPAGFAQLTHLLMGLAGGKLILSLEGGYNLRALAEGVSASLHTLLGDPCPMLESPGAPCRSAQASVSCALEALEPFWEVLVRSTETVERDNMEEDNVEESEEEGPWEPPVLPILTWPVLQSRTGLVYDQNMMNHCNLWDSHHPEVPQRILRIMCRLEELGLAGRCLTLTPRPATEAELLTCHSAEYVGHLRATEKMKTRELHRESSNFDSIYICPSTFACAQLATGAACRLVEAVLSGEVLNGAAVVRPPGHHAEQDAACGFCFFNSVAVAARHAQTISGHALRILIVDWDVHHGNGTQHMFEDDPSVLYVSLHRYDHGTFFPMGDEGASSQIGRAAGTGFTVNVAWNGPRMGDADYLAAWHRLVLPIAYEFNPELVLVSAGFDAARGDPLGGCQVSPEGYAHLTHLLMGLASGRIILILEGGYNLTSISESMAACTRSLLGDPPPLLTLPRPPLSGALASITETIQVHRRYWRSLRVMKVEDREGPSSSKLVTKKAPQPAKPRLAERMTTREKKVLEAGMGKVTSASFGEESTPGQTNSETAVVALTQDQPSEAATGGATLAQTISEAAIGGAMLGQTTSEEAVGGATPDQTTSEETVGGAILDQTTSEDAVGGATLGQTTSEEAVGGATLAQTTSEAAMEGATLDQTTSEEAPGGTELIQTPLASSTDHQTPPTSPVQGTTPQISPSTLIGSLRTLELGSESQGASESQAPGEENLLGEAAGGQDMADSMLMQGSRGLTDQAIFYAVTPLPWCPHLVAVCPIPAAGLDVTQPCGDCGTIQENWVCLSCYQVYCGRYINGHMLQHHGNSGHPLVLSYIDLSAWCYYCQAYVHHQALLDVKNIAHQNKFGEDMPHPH
Nature of the assay: HDAC6 enzyme activity inhibition (HDAC Fluorimetric Drug Discovery Kit). The class given is biochemical. Particulars: for HDAC6 selectivity (fold): HDAC1 IC50 / HDAC6 IC50; for IC50: human recombinant HDAC6, IC50 calculated with GraphPad Prism. As to the method:
(§1) An experiment was conducted to identify the selectivity of the compound represented by formula I of the present invention to HDAC6 through an experiment on HDAC1 and HDAC6 enzyme activity inhibition.
(§2) A 5-fold dilution of the compound was divided into a 96-well plate, after which […] of the enzyme and 10 μM of the substrate were inserted into each well and subjected to reaction at 30° C. for 60 minutes, such that Fluor de Lys® Developer II (BML-KI176) was inserted thereinto and subjected to reaction for 30 minutes and finished.

The next assay deals with T2, human recombinant HDAC1 (Homo sapiens, UniProt Q13547).
T2 construct: purchased Enzo Life Science, Inc. BML-SE456
The assay is described as follows: HDAC1 enzyme activity inhibition (HDAC Fluorimetric Drug Discovery Kit). In kind it is biochemical. Particulars: read-out: HDAC1. On the procedure: as §1, §2

The mark [1] stands for this setting: human recombinant HDAC1, IC50 calculated with GraphPad Prism.
Where [2] appears, read: human recombinant HDAC1, Fluor de Lys substrate, 30° C. 60 minutes.

T2 sequence (Q13547 whole entry): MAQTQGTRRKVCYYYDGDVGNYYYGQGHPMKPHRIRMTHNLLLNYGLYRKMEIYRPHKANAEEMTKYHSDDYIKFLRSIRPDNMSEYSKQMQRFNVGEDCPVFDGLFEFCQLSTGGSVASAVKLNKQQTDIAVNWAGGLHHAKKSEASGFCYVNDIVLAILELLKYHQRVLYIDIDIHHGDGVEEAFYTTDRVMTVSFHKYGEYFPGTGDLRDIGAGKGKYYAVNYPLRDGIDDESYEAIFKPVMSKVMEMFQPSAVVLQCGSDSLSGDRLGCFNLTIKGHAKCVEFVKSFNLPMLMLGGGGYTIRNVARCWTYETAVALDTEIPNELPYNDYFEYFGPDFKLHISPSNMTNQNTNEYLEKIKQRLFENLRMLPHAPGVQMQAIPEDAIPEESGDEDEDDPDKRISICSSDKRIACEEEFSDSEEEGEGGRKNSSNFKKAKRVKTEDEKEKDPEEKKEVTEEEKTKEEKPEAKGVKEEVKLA

With `FC(F)c1nnc(-c2ccc(Cn3cc(-c4ccccc4)nn3)cc2)o1` [Compound 3657, 2-(difluoromethyl)-5-(4-((4-phenyl-1H-1,2,3-triazol-1-yl)methyl)phenyl)-1,3,4-oxadiazole], on human recombinant HDAC6, the “HDAC6 selectivity (fold)” value worked out at 527 fold and the IC50 was 0.0948 µM. For the same molecule, the IC50 at human recombinant HDAC1 (setting [1]) was above 50 µM.
On to `O=C(O)c1cccc(-c2cn(Cc3ccc(-c4nnc(C(F)F)o4)cc3)nn2)c1` [Compound 3659, 3-(1-(4-(5-(difluoromethyl)-1,3,4-oxadiazol-2-yl)benzyl)-1H-1,2,3-triazol-4-yl)benzoic acid], for which, at human recombinant HDAC6, the “HDAC6 selectivity (fold)” value was determined as 122 fold and the IC50 is 0.409 µM. In addition, the IC50 on human recombinant HDAC1 (setting [1]) was above 50 µM.
As to `O=C(O)c1cccc(-c2cn(Cc3ccc(-c4nnc(C(F)F)o4)cc3F)nn2)c1` [Compound 3660, 3-(1-(4-(5-(difluoromethyl)-1,3,4-oxadiazol-2-yl)-2-fluorobenzyl)-1H-1,2,3-triazol-4-yl)benzoic acid], on human recombinant HDAC6, the “HDAC6 selectivity (fold)” value was determined as 175 fold and the IC50 was 0.285 µM. Also, on human recombinant HDAC1 (setting [1]), the IC50 was above 50 µM.
For `Fc1ccc(-c2cn(Cc3ccc(-c4nnc(C(F)F)o4)cc3)nn2)cc1F` [Compound 3661, 2-(difluoromethyl)-5-(4-((4-(3,4-difluorophenyl)-1H-1,2,3-triazol-1-yl)methyl)phenyl)-1,3,4-oxadiazole], the IC50 on human recombinant HDAC1 (setting [1]) is above 50 µM.
For `Fc1ccc(-c2cn(Cc3ccc(-c4nnc(C(F)F)o4)cc3F)nn2)cc1F` [Compound 3662, 2-(difluoromethyl)-5-(4-((4-(3,4-difluorophenyl)-1H-1,2,3-triazol-1-yl)methyl)-3-fluorophenyl)-1,3,4-oxadiazole], at human recombinant HDAC6, the “HDAC6 selectivity (fold)” value came to 289 fold and the IC50 was 0.173 µM. Further, the IC50 on human recombinant HDAC1 (setting [1]) was above 50 µM.
With `FC(F)c1nnc(-c2ccc(Cn3cc(-c4cc(C(F)(F)F)cc(C(F)(F)F)c4)nn3)cc2)o1` [Compound 3695, 2-(4-((4-(3,5-bis(trifluoromethyl)phenyl)-1H-1,2,3-triazol-1-yl)methyl)phenyl)-5-(difluoromethyl)-1,3,4-oxadiazole], on human recombinant HDAC6, the “HDAC6 selectivity (fold)” value is 42 fold and the IC50 is 1.19 µM. Also, on human recombinant HDAC1 (setting [1]), the IC50 was above 50 µM.
Regarding `Fc1cc(-c2nnc(C(F)F)o2)ccc1Cn1cc(-c2cc(C(F)(F)F)cc(C(F)(F)F)c2)nn1` [Compound 3696, 2-(4-((4-(3,5-bis(trifluoromethyl)phenyl)-1H-1,2,3-triazol-1-yl)methyl)-3-fluorophenyl)-5-(difluoromethyl)-1,3,4-oxadiazole], at human recombinant HDAC6, the “HDAC6 selectivity (fold)” value is listed as 52 fold and the IC50 is 0.945 µM. In addition, the IC50 on human recombinant HDAC1 (setting [1]) is above 50 µM.
As for `CC(C)(C)OC(=O)Nc1cccc(-c2cn(Cc3ccc(-c4nnc(C(F)F)o4)cc3F)nn2)c1` [Compound 3697, Tert-butyl (3-(1-(4-(5-(difluoromethyl)-1,3,4-oxadiazol-2-yl)-2-fluorobenzyl)-1H-1,2,3-triazol-4-yl)phenyl)carbamate], at human recombinant HDAC6, the “HDAC6 selectivity (fold)” value worked out at 1101 fold and the IC50 is 0.0454 µM. Also, at human recombinant HDAC1 (setting [1]), the IC50 was above 50 µM.
With `CC(C)(C)OC(=O)Nc1cccc(-c2cn(Cc3ccc(-c4nnc(C(F)F)o4)cc3)nn2)c1` [Compound 3698, Tert-butyl (3-(1-(4-(5-(difluoromethyl)-1,3,4-oxadiazol-2-yl)benzyl)-1H-1,2,3-triazol-4-yl)phenyl)carbamate], the “HDAC6 selectivity (fold)” value on human recombinant HDAC6 is given as 1096 fold. The IC50 at human recombinant HDAC6 was 0.0456 µM; at human recombinant HDAC1 (setting [1]), above 50 µM.
Regarding `O=C(O)c1ccc(-c2cn(Cc3ccc(-c4nnc(C(F)F)o4)cc3)nn2)cc1` [Compound 3731, 4-(1-(4-(5-(difluoromethyl)-1,3,4-oxadiazol-2-yl)benzyl)-1H-1,2,3-triazol-4-yl)benzoic acid], on human recombinant HDAC6, the “HDAC6 selectivity (fold)” value amounted to 29 fold and the IC50 is 1.72 µM. Also, at human recombinant HDAC1 (setting [1]), the IC50 is above 50 µM.
Consider `O=C(O)c1ccc(-c2cn(Cc3ccc(-c4nnc(C(F)F)o4)cc3F)nn2)cc1` [Compound 3732, 4-(1-(4-(5-(difluoromethyl)-1,3,4-oxadiazol-2-yl)-2-fluorobenzyl)-1H-1,2,3-triazol-4-yl)benzoic acid], for which, on human recombinant HDAC6, the “HDAC6 selectivity (fold)” value stood at 74 fold and the IC50 was 0.672 µM. For the same molecule, on human recombinant HDAC1 (setting [1]), the IC50 is above 50 µM.
For `Cc1ccc(-c2cn(Cc3ccc(-c4nnc(C(F)F)o4)cc3F)nn2)cc1` [Compound 3733, 2-(difluoromethyl)-5-(3-fluoro-4-((4-(p-tolyl)-1H-1,2,3-triazol-1-yl)methyl)phenyl)-1,3,4-oxadiazole] the same measures were 215 fold, 0.233 µM and above 50 µM.
Consider `FC(F)c1nnc(-c2ccc(Cn3cc(-c4cn[nH]c4)nn3)nc2)o1` [Compound 3985, 2-(6-((4-(1H-pyrazol-4-yl)-1H-1,2,3-triazol-1-yl)methyl)pyridin-3-yl)-5-(difluoromethyl)-1,3,4-oxadiazole], for which the IC50 at human recombinant HDAC1 (setting [1]) is above 50 µM.
As for `CCN1CCC(c2cccc(-c3cn(Cc4ccc(-c5nnc(C(F)F)o5)cn4)nn3)c2)CC1` [Compound 4011, 2-(difluoromethyl)-5-(6-((4-(3-(1-ethylpiperidin-4-yl)phenyl)-1H-1,2,3-triazol-1-yl)methyl)pyridin-3-yl)-1,3,4-oxadiazole], the IC50 on human recombinant HDAC1 (setting [1]) is above 50 µM.
Take `CC(C)(F)C(=O)Nc1cccc(-c2cn(Cc3ccc(-c4nnc(C(F)F)o4)cc3F)nn2)c1` [Compound 4334]: at human recombinant HDAC1 (setting [1]), the IC50 was above 50 µM.
`FC(F)c1nnc(-c2ccc(Cn3cc(-c4ccc5[nH]ncc5c4)nn3)cc2)o1` [Compound 4344, 2-(4-((4-(1H-indazol-5-yl)-1H-1,2,3-triazol-1-yl)methyl)phenyl)-5-(difluoromethyl)-1,3,4-oxadiazole]: the IC50 on human recombinant HDAC1 (setting [1]) was above 50 µM.
For `CC(C)N1Cc2ccc(-c3cn(Cc4ccc(-c5nnc(C(F)F)o5)cc4F)nn3)cc2C1` [Compound 4517, 2-(difluoromethyl)-5-(3-fluoro-4-((4-(2-isopropylisoindolin-5-yl)-1H-1,2,3-triazol-1-yl)methyl)phenyl)-1,3,4-oxadiazole], the IC50 at human recombinant HDAC1 (setting [2]) was above 50 µM.
As for `CN(C)Cc1ccc(-c2cn(Cc3ccc(-c4nnc(C(F)F)o4)cc3F)nn2)cc1` [Compound 4522, 1-(4-(1-(4-(5-(difluoromethyl)-1,3,4-oxadiazol-2-yl)-2-fluorobenzyl)-1H-1,2,3-triazol-4-yl)phenyl)-N,N-dimethylmethanamine], on human recombinant HDAC1 (setting [2]), the IC50 was above 50 µM.
Consider `CN1CCN(c2cc(-c3cn(Cc4ccc(-c5nnc(C(F)F)o5)cc4F)nn3)ccn2)CC1` [Compound 4633, 2-(difluoromethyl)-5-(3-fluoro-4-((4-(2-(4-methylpiperazin-1-yl)pyridin-4-yl)-1H-1,2,3-triazol-1-yl)methyl)phenyl)-1,3,4-oxadiazole], for which the IC50 on human recombinant HDAC1 (setting [2]) is above 50 µM.
Consider `Fc1cc(-c2nnc(C(F)F)o2)ccc1Cn1cc(-c2ccn3ccnc3c2)nn1` [Compound 17198, 2-(difluoromethyl)-5-(3-fluoro-4-((4-(imidazo[1,2-a]pyridin-7-yl)-1H-1,2,3-triazol-1-yl)methyl)phenyl)-1,3,4-oxadiazole], for which the IC50 on human recombinant HDAC1 (setting [2]) is above 50 µM.
Consider `CN1CC(c2ccc(-c3cn(Cc4ccc(-c5nnc(C(F)F)o5)cc4F)nn3)cc2)C1` [Compound 17698], for which, at human recombinant HDAC1 (setting [2]), the IC50 is above 50 µM.
Still for that read-out and setting: the figure for `CN(C)Cc1ccc(-c2cn(Cc3ccc(-c4nnc(C(F)F)o4)cc3F)nn2)s1` [Compound 17914, 1-(5-(1-(4-(5-(difluoromethyl)-1,3,4-oxadiazol-2-yl)-2-fluorobenzyl)-1H-1,2,3-triazol-4-yl)thiophen-2-yl)-N,N-dimethylmethanamine] is above 50 µM.
